Test results from paper PMC6100347, “Simultaneous Determination of Decursin, Decursinol Angelate, Nodakenin, and Decursinol of Angelica gigas Nakai in Human Plasma by UHPLC-MS/MS: Application to Pharmacokinetic Study” (Molecules : A Journal of Synthetic Chemistry and Natural …, 2018).

Experiments:
[1] = Published PK study of AGN-based dietary supplement Cogni Q after oral administration in humans; format: in vivo, human; settings: Cogni Q (ref 23) vs 4.6 g AGN root extract powder
Protocol: PK study of the four coumarins has been reported in several studies. However, presented PK parameters are inconsistent with each other. Of these studies, only one paper has reported a PK study for D, DA, and DOH after oral administration in humans (male, n = 10) for AGN-based dietary supplement Cogni Q (119 mg D and 77 mg DA from four vegicaps). […] Such discrepancies in PK parameters between that study and the current study might be due to differences in dosage and the influence of excipients from different formulations. PKs of nodakenin in humans have not been reported previously.

[2] = Pharmacokinetic study after oral administration of AGN root extract powder in healthy Korean subjects; format: in vivo, human; settings: mean ± SE, n = 10; for CL/F / Vd/F: humans; for CL/F / Vd/F / AUC(0-inf) / Tmax / half-life: single usual oral dose of 4.6 g AGN root extract powder; for CL/F: dose of each coumarin / AUC0–∞; for Vd/F / Cmax / AUC(0-inf) / Tmax / half-life: male; for Vd/F: human, plasma; for Cmax / AUC(0-inf) / Tmax / half-life: human plasma; for Cmax: single usual oral dose of 4.6 g AGN root extract powder (0.055 mg D, 0.184 mg DA, 1.095 mg nodakenin)
Protocol: Ten healthy male subjects (Korean, 23–25 years, weight of 56.7–86.2 kg, and height of 159.8–188.0 cm) were included for this clinical trial. These subjects were in good health condition prior to this study based on a physical examination, medical history, and laboratory tests. Clinical trial protocol was approved by the Institutional Review Board of Wonkwang Oriental Medicine Hospital, Gwangju, Korea (https://cris.nih.go.kr, no. KCT0001118). This clinical trial was carried out in accordance with the revised Declaration of Helsinki for biomedical research involving human subjects and Guideline for Good Clinical Practice.
All subjects fasted for at least 10 h before drug administration. They continued the fasting for another 4 h. These subjects abstained from consuming alcohol or xanthine-containing foods, or beverages during the study. A usual oral dose of AGN root extract powder was given to each subject with 240 mL of spring water. The usual dose approved by the MFDS was of 4.6 g. It contained 0.055 mg of D, 0.184 mg of DA, and 1.095 mg of nodakenin. Blood samples were taken from the forearm vein before and at 0.25, 0.5, 0.75, 1, 2, 3, 4, 6, 8, 12, and 24 h after oral administration. Samples were transferred to Vacutainer® (10 mL, Becton Dickinson and Company, NJ, USA) tubes and immediately centrifuged (10,000× g, 10 min, 4 °C) to obtain plasma samples. Obtained plasma samples were transferred to polyethylene tubes and stored at −80 °C until analysis.
Plasma concentration–time data were analyzed with non-compartmental method using WinNonlin® software (version 7.0, Pharsight®, Certara™ Company, Princeton, NJ, USA) to obtain pharmacokinetic parameters. The area under the plasma concentration–time curve from zero to time infinity (AUC0–∞) was calculated as AUC0–t + Ct/k, where Ct is was the last measurable concentration. AUC0–t was calculated by linear trapezoidal rule from zero to the last measurable time point. Oral clearance (CL/F) was calculated as dose of each coumarin divided by AUC0–∞, where F was oral bioavailability. The t1/2 was calculated as 0.693/k, where k was terminal rate constant. All results are expressed as mean value ± standard error (mean ± SE, n = 10).

[3] = Stability in human plasma under various storage conditions (QC samples); format: in vitro ADME; settings: in % (unit assumed); for Stability, Processed Sample (10 °C in Auto Sampler for 24 h): extracted human plasma sample; for Stability, Processed Sample (10 °C in Auto Sampler for 24 h) / Stability, Long-Term (−80 °C for 30 Days) / Stability, Bench-Top (8 h at Room Temperature) / Stability, Freeze-Thaw (3 Cycles): mean ± SD, n = 5; for Stability, Long-Term (−80 °C for 30 Days) / Stability, Bench-Top (8 h at Room Temperature) / Stability, Freeze-Thaw (3 Cycles) / Stability mean values (range over all storage conditions and concentrations): human plasma; for Stability, Bench-Top (8 h at Room Temperature): measured vs initial value; for Stability, Freeze-Thaw (3 Cycles): −80 °C and room temperature; for Stability mean values (range over all storage conditions and concentrations): bench-top, processed sample, freeze-thaw, long-term, low and high QC
Protocol: Bench-top stability test was conducted by using unextracted QC samples at room temperature for 8 h. Processed sample stability test was carried out by analyzing extracted samples in an auto sampler at 10 °C for 24 h. Freeze–thaw stability was estimated after three frozen and thawing cycles at −80 °C and room temperature on consecutive days. Long-term stability was examined after storing samples at −80 °C for a month. Stability of each coumarin was estimated by comparing the initial value with measured value after the examination (n = 5). The sample was considered stable if each value was less than 15% and all value of data expressed as mean ± standard deviation (mean ± SD).

Structure (SMILES) | t1/2 of published study relative to t1/2 of this study (times longer) [1] | CL/F [2] | Vd/F [2] | Cmax [2] | AUC(0-inf) [2] | Tmax [2] | half-life [2] | Stability, Processed Sample (10 °C in Auto Sampler for 24 h) ([3]; nominal conc. 0.15 ng/mL) | Stability, Processed Sample (10 °C in Auto Sampler for 24 h) ([3]; nominal conc. 40 ng/mL) | Stability, Long-Term (−80 °C for 30 Days) ([3]; nominal conc. 0.15 ng/mL) | Stability, Bench-Top (8 h at Room Temperature) ([3]; nominal conc. 0.15 ng/mL) | Stability, Freeze-Thaw (3 Cycles) ([3]; nominal conc. 0.15 ng/mL) | Stability, Long-Term (−80 °C for 30 Days) ([3]; nominal conc. 40 ng/mL) | Stability, Bench-Top (8 h at Room Temperature) ([3]; nominal conc. 40 ng/mL) | Stability, Freeze-Thaw (3 Cycles) ([3]; nominal conc. 40 ng/mL) | Stability mean values (range over all storage conditions and concentrations) [3]
CC(C)=CC(=O)O[C@H]1Cc2cc3ccc(=O)oc3cc2OC1(C)C [D, decursin] | about 5.84 times | 3.11 ± 0.42 L/h | 11.9 ± 1.5 L | 11.9 ± 1.43 ng/mL | 22.3 ± 5.04 ng·h/mL | 0.44 ± 0.05 h | 3.03 ± 0.52 h | 100.34 ± 9.38 | 108.94 ± 11.50 | 105.00 ± 9.02 | 101.91 ± 3.91 | 96.54 ± 10.95 | 102.26 ± 10.17 | 108.71 ± 14.16 | 102.80 ± 12.88 | 96.54–108.94
C/C=C(/C)C(=O)O[C@H]1Cc2cc3ccc(=O)oc3cc2OC1(C)C [DA, decursinol angelate] | ~3.7 times | 12.00 ± 1.97 L/h | 60 ± 7.3 L | 7.72 ± 0.84 ng/mL | 19.6 ± 3.71 ng·h/mL | 0.31 ± 0.04 h | 4.04 ± 0.64 h | 111.85 ± 12.49 | 103.88 ± 3.51 | 106.20 ± 9.09 | 108.58 ± 10.18 | 103.55 ± 8.34 | 99.35 ± 4.17 | 107.87 ± 4.07 | 100.75 ± 4.12 | 99.35–111.85
CC1(C)Oc2cc3oc(=O)ccc3cc2C[C@@H]1O [DOH, decursinol] | ~2.5 times |  |  | 0.92 ± 0.16 ng/mL | 2.43 ± 0.45 ng·h/mL | 0.64 ± 0.06 h | 2.62 ± 0.5 h | 102.43 ± 5.27 | 104.77 ± 2.48 | 87.35 ± 9.60 | 89.75 ± 11.39 | 92.06 ± 2.28 | 106.93 ± 11.89 | 101.81 ± 7.72 | 104.29 ± 9.30 | 87.35–106.93
CC(C)(O[C@@H]1O[C@H](CO)[C@@H](O)[C@H](O)[C@H]1O)[C@H]1Cc2cc3ccc(=O)oc3cc2O1 [Nodakenin, nodakenin] |  | 622.29 ± 159.24 L/h | 2800 ± 420 L | 0.95 ± 0.17 ng/mL | 3.11 ± 0.8 ng·h/mL | 0.67 ± 0.04 h | 6.28 ± 2.47 h | 107.70 ± 9.77 | 103.17 ± 10.19 | 111.62 ± 8.13 | 101.43 ± 7.53 | 103.49 ± 8.40 | 101.90 ± 9.83 | 107.91 ± 6.81 | 104.79 ± 12.76 | 101.43–111.62
